# Laboratory results reported in US9290777B2, “Putative cytokinin receptor and methods for use thereof” (NATIONAL UNIVERSITY OF SINGAPORE, priority 2007, dated 2016).
# Entries after “also recorded” stand apart in the source; their conditions may differ.
# T1: purified TAP-HOG1 (Arabidopsis thaliana, UniProt O23255)
# T1 construct: Protein A (ProtA part of the TAP tag, TEV site between ProtA and CBP) (N, cleaved yes); made in house; host or cells: TAP-HOG1: transgenic Arabidopsis thaliana (35S:TAP-HOG1); AHP1: E. coli BL21 (PET32EK/LIC)
# T1 sequence (O23255 whole entry, looked up): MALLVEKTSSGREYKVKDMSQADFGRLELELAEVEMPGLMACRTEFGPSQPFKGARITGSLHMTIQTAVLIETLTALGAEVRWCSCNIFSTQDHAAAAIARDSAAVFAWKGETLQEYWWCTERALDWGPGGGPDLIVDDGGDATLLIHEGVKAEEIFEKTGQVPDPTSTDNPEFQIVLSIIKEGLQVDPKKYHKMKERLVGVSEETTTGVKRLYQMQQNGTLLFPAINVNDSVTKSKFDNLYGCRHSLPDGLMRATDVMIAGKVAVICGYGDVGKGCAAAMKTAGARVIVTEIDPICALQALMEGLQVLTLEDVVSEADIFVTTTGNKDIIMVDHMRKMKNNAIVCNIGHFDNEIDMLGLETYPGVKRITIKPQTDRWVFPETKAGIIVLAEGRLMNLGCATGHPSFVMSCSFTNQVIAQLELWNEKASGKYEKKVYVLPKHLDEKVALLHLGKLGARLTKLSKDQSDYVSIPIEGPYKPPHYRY
# T2: recombinant AHP1 with six-His and thioredoxin tags, expressed in E. coli (Arabidopsis thaliana, UniProt Q9ZNV9 1-154)
# T2 construct: This is the form used in ITC; also called purified AHP1; Arabidopsis histidine phosphotransfer protein 1; not shown: thioredoxin tag and six-His tag from the vector PET32EK/LIC (Novagen)
# T2 sequence (looked up): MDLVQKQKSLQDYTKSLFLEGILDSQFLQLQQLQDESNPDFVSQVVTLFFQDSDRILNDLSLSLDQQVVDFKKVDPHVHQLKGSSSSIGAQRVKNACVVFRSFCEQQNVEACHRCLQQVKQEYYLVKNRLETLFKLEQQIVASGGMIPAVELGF
# B1: AHP1: recombinant Arabidopsis histidine phosphotransfer protein 1 with six-HIS and thioredoxin tags, expressed in E. coli (protein)
# chain: T2 sequence (looked up)
# modifications: left off: large carriers
# notes: recombinant Arabidopsis histidine phosphotransfer protein 1 with six-HIS and thioredoxin tags, expressed in E. coli
# B2: purified TAP-HOG1 protein (HOG1 retaining the CBP portion of the TAP tag, 60 kDa) (receptor, not shown: small tags and cut ends)
# chain: MALIVEKTSGGREYKVKDMSQADFGRLELELAEVEMPGLMACRTEFGPAQPFKGARITGSLHMTIQTAVLIETLTALGAEVRWCSCNIFSTQDHAAAAIARDSAAVFAWKGETLQEYWWCTERALDWGPGGGPDLIVDDGGDATLLIHEGVKAEEIFEKTGQVPDPTSTDNPEFQIVLSIIKEGLQVDPKKYHKMKGRLVGVSEETTTGVKRLYQMQESGALLFPAINVNDSVTKSKFDNLYGCRHSLPDGLMRATDVMIAGKVAVICGYGDVGKGCAAAMKTAGARVIVTEIDPICALQAMMEGLQVLTLEDVVSEADIFVTTTGNKDIIMVDHMRKMKNNAIVCNIGHFDNEIDMQGLETFPGVKRITIKPQTDRWVFPDTKSGIIVLAEGRLMNLGCATGHPSFVMSCSFTNQVIAQLELWNEKSSGKYEKKVYVLPKHLDEKVAALHLGKLGAKLTKLTKDQSDYVSIPIEGPYKPPHYRY
# notes: Purified from transgenic Arabidopsis thaliana carrying 35S:TAP-HOG1, using the Prot A and CBP tags; After purification it keeps only the CBP portion of the tag (60 kDa; HOG1 alone would be 56 kDa); also called Homology-dependent gene silencing 1
# B3: TAP-HOG1: TAP-tagged HOG1 polypeptide (SEQ ID NO: 1) purified from transgenic Arabidopsis thaliana (protein, listed as Arabidopsis thaliana)
# chain: B2 chain
# modifications: TAP tag; HOG1 Arabidopsis thaliana
# Assays:
# [1] = system: tobacco genome in suspension cultures; settings: relative to untreated material; cited from earlier work
# purified TAP-HOG1 [2] = molecular target: T3, purified TAP-HOG1 (Arabidopsis thaliana, UniProt O23255); test: biochemical; type: binding
# T3 construct: Protein A (ProtA part of the TAP tag, TEV site between ProtA and CBP) (N, cleaved yes); made in house; host or cells: transgenic Arabidopsis thaliana harbouring 35S:TAP-HOG1
# Procedure: (§1) Cytokinin binding affinity and thermodynamic analysis of the interaction between HOG1 and cytokinins was examined by ITC (MCSITC, Microcal, Northampton, USA). Three naturally occurring cytokinins (zeatin, benzyladenine and isopentenyl adenine) and thidiazuron (an urea-derived synthetic cytokinin) were used. Additionally, adenosine and NAD were used as control molecules to verify the binding specificity of HOG1 to cytokinins. Data were analyzed by MICROCAL ORIGIN version 2.9 using the best-fit, nonlinear least-squares method for one binding site. The binding stoichiometry (n), and association constant (KA) were calculated from the fitted curves. Subsequently, KD was calculated as 1/KA. Raw heat data were corrected to baseline drift obtained from injections of 0.1 μM purified AHP1 into the sample cell containing 2 μM purified TAP-HOG1. Binding isotherms were created by plotting the heat peak areas against the molar ratio of AHP1 added to HOG1.
# Cytokinin binding affinity and thermodynamic analysis of the interaction between HOG1 and cytokinins was examined by ITC (MCSITC, Microcal, Northampton, USA). TAP-HOG1 fusion protein was purified using published protocols (Forler et al. supra) from transgenic Arabidopsis plants harboring the 35S:TAP-HOG1 construct. 0.01 μM benzyladenine (a naturally occurring cytokinin) and 0.1 μM of purified TAP-HOG1 protein were used for each ITC assay with 25 injections (each injection of 2 μl at […] intervals at 37° C.). Data were analyzed with MICROCAL ORIGIN version 2.9 using the best-fit, nonlinear least-squares method for one binding site. The binding stoichiometry (n), and association constant (KA) were calculated from the fitted curves. Subsequently, KD was calculated as 1/KA.
# [3] = system: HOG1 anti-sense suppression (AS) line 12 plants; test: Exogenous cytokinin spray on HOG1 anti-sense suppression line, phenotype; type: in vivo, Arabidopsis thaliana; settings: 0.01 μM spray on alternate days over four weeks
# Procedure: Three individual seedlings of OE line 6 and AS line 12 were sprayed on alternate days with zeatin or kinetin (0.01 μM), over a period of four weeks. Two WT plants were similarly treated for comparison. […] E) The control OE lines bolt at 4 leaf stage. B) and D) Three individuals of OE line 6 sprayed with zeatin and kinetin respectively, show bolting only after they have reached the 6-7 leaf stage. […] (Note that panels A, B, E and F are in the main FIG. 2 as panels G, H, I and J, and these are included here for ease of comparison only).
# purified TAP-HOG1 [4] = molecular target: T1, purified TAP-HOG1; test: TAP-HOG1 and AHP1 interaction by ITC; type: binding; settings: recombinant AHP1 injected into purified TAP-HOG1, read-out: KD (dissociation constant)
# Procedure: as §1
# TAP-HOG1 protein complex was purified using the ProtA and CBP tags as described before in Forler et al. (supra). For ProtA pulldown, IgG Sepharose beads (Amersham Biosciences #17-0969-01) and for CBP pulldown Calmodulin affinity resin (Stratagene #214303-52) were used. The purified protein was subjected to SDS-PAGE and blotted to PVDF membranes for Western blot analysis using standard protocols. […]
# [5] = molecular target: T2, recombinant AHP1 with six-His and …; test: ITC; purified AHP1 injected into a cell containing purified TAP-HOG1
# Procedure: C) Purification of TAP-HOG1 complex. […] D) SDS-polyacrylamide gel electrophoresis of recombinant AHP1 purification. AHP1 was expressed with six-His and thioredoxin-tags in *E. coli*. Lane 1 has total cell lysate and purified AHP1 with the tags is in lane 2. E) TAP-HOG1 and AHP1 interaction was performed with ITC.
# as §1, with “µM” for “μM”
# [6] = system: S-adenosyl homocysteine hydrolase (SAHH) activity; test: SAHH spectrophotometric assay; type: biochemical, Arabidopsis thaliana; settings: purified protein
# [7] = ITC, control molecules, purified TAP-HOG1, read-out: KD (dissociation constant)
molecule,measurement,setting,value
"Nc1ncnc2c1ncn2C[C@H](O)CO [(S)-9-(2,3-dihydroxypropyl)adenine]",decrease of SAM:SAH ratio at which genome hypomethylation occurred,[1],300 folds
NC(=O)c1ccc[n+]([C@@H]2O[C@H](COP(=O)([O-])OP(=O)(O)OC[C@H]3O[C@@H](n4cnc5c(N)ncnc54)[C@H](O)[C@@H]3O)[C@@H](O)[C@H]2O)c1 [NAD+],Kd,purified TAP-HOG1 [2]; [7],39500 nM
Nc1ncnc2nc[nH]c12 [adenine],Kd,purified TAP-HOG1 [2]; [7],2100 nM
c1coc(CNc2ncnc3[nH]cnc23)c1 [kinetin],phenotype compared with control AS lines,[3],did not show any significant difference in phenotype
O=C(Nc1ccccc1)Nc1cnns1 [thidiazuron],binding to HOG1,"purified TAP-HOG1 [2]; ITC, performed as with zeatin",does not bind
C/C(=C\CNc1ncnc2[nH]cnc12)CO [zeatin],Kd,purified TAP-HOG1 [2],16.9 to 20.6 nM
same,phenotype compared with control AS lines,[3],did not show any significant difference in phenotype
B1,Kd,purified TAP-HOG1 [4],23.8 nM
B2,Kd,[5],23.8 nM
B3,SAHH enzyme activity,[6],lacks measurable SAHH activity; also recorded: lacks SAHH enzyme activity
